Experimental data taken from US5462869A, “Human endothelin converting enzyme isolated from blood or placenta by hydrated density” (Nisshin Flour Milling Co., Ltd., priority 1991, dated 1995).
Square brackets hold non-standard residues; d marks the D form. Peptide text beside a SMILES is read from it. * marks the point of attachment. Sta = CC(C)C[C@H](N)[C@@H](O)CC(=O)O; Isovaleryl = CC(C)CC(=O)*

What was measured:
Type in all cases: biochemical, human
Details in all cases: 37° C. 30 minutes, pH 7.0, untreated enzyme as 100
[1] = test system: endothelin converting enzyme II; test: Effect of inhibitors on activity of converting big endothelin-1 to endothelin-1, enzyme II
Protocol: (§1) 10 μl of a 100 nmol/ml big endothelin-1 solution is added to 1 ml of an enzyme solution (10 mM trishydrochloric acid-0.15M sodium chloride buffer; pH 7.0), and the enzymatic reaction is carried out at 37° C. for 3 hours. After completion of the reaction, 10 μl of a 0.1M EDTA solution is added thereto to discontinue the reaction. Thereafter, the resultant endothelin-1 is assayed according to the sandwich-EIA method. An enzymatic activity of converting 1 pmol of big endothelin-1 to endothelin-1 per hour under the above-described reaction conditions is termed 1 U (unit).
(§2) A sample and a predetermined concentration of endothelin standard solution are respectively applied to a 96-hole microplate on which ani-endothelin monoclonal antibody is immobilized to thereby cause the […]. […] Then, biotin-labeled anti-endothelin polyclonal antibody and peroxydase-labeled avidin are applied thereto for reaction. After washing the microplate, activity of bound peroxydase is assayed. Endothelin concentration in the sample is assayed based on the calibration curve drawn by using endothelin standard solutions having predetermined concentrations of endothelin.
(§3) The enzymes of the invention were tested for the effects of various inhibitors against the activity of converting big endothelin-1 to endothelin-1.
(§4) Each of the enzymes is incubated in 100 μl of a reaction solution (10 mM tris-hydrochloric acid-0.15M sodium chloride buffer; pH 7.0) containing various inhibitors at 37° C. for 30 minutes, and the residual enzymatic activity is measured in the above-described manner.

[2] = test system: endothelin converting enzyme IV; test: Effect of inhibitors on activity of converting big endothelin-1 to endothelin-1, enzyme IV
Protocol: as §1, §2, §3, §4

[3] = test system: endothelin converting enzyme III; test: Effect of inhibitors on activity of converting big endothelin-1 to endothelin-1, enzyme III
Protocol: as §1, §2, §3, §4

[4] = test system: endothelin converting enzyme I; test: Effect of inhibitors on activity of converting big endothelin-1 to endothelin-1, enzyme I
Protocol: as §1, §2, §3, §4

With `CC(C)C[C@H](NP(=O)(O)O[C@@H]1O[C@@H](C)[C@H](O)[C@@H](O)[C@H]1O)C(=O)N[C@@H](Cc1c[nH]c2ccccc12)C(=O)O` [Phosphoramidon] the “Relative Activity (%)” value ([1]; inhibitor 0.1 mM) was 2%, the “Relative Activity (%)” value ([2]; inhibitor 0.1 mM) was 3% and the “Relative Activity (%)” value ([3]; inhibitor 0.1 mM) was 1%. For the same compound, the “Relative Activity (%)” value ([4]; inhibitor 0.1 mM) was 1%.

`c1cnc2c(c1)ccc1cccnc12` [1,10-Phenanthroline] was tested, and the “Relative Activity (%)” value ([1]; inhibitor 0.5 mM) was 5%, the “Relative Activity (%)” value ([2]; inhibitor 0.5 mM) was 8% and the “Relative Activity (%)” value ([3]; inhibitor 0.5 mM) was 7%. The “Relative Activity (%)” value ([4]; inhibitor 0.5 mM) was 10%.

For `CC(C)CC(=O)N[C@H](C(=O)N[C@H](C(=O)N[C@@H](CC(C)C)[C@@H](O)CC(=O)N[C@@H](C)C(=O)N[C@@H](CC(C)C)[C@@H](O)CC(=O)O)C(C)C)C(C)C` [Pepstatin A] (Isovaleryl-VV[Sta]A[Sta]-OH), the “Relative Activity (%)” value ([1]; inhibitor 0.01 mM) was 100%, the “Relative Activity (%)” value ([2]; inhibitor 0.01 mM) was 97% and the “Relative Activity (%)” value ([3]; inhibitor 0.01 mM) was 99%. The “Relative Activity (%)” value ([4]; inhibitor 0.01 mM) was 99%.
